# Results from patent publication US20200339544A1 (JOINT STOCK COMPANY "BIOCAD", priority 2017, published 2020).
# pIC50: −log10 of the molar value. Like-named read-outs stand apart in the source and are kept apart here.
# Key:
# HepG2 cells = assay: General cytotoxicity on HepG2 cells; format: cell-based; details: therapeutic index, CC50 HepG2 / IC50 H1975
# In short: (§1)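 HepG2 cells seeded at 2*10^4 cells per well and compounds added in DMEM with 2% FBS for 72 h at 37 °C. Viability read with Alamar Blue and CC50 derived as for IC50. Therapeutic index taken as HepG2 CC50 over H1975 IC50.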
# [1] = General cytotoxicity on HepG2 cells; format: cell-based; details: human; general cytotoxicity, HepG2 cells, 72 hours, average of several tests
# In short: as §1
# [2] = test system: HCC827 (lung adenocarcinoma, SM, exon19delE746-A750); assay: Antiproliferative activity on HCC827 cells (Alamar Blue); format: cell-based; details: Homo sapiens, antiproliferative test
# Protocol: Antiproliferative activity of EGFR inhibitors (Tables 15 and 16) was measured in cell-based bioassay on continuous epithelial cell cultures: A549 (lung adenocarcinoma, ATCC® CRM-CCL-185™—WT), HCC827 (lung adenocarcinoma, ATCC® CRL-2868™—SM (SingleMutantEGFR, exon19delE746-A750)) and H1975 (lung adenocarcinoma, ATCC® CRL-5908™—DM (DoubleMutantEGFR, L828R/T790M)) using cell viability reagent Alamar Blue (ThermoFisher, # DAL1100). Cells were cultured in 10% FBS-supplemented (Gibco, #16140071) RPMI-1640 (PanEco, S330p) for at least 1 passage after thawing, washed with PBS and passaged in 96-well culture plates (3599, Corning) with RPMI-1640 growth medium supplemented with 2% FBS in an amount of 5*10^3 cells/well for A549, 10*10^3 cells/well for HCC827 and 15*10^3 cells/well for H1975 in 100 μL, and incubated at 37° C. in an incubator (Thermo Forma, USA) under 5% of CO2 for 16-18 h for cell attachment.
# The test compounds were dissolved in DMSO in the selected range of concentrations and transferred to RPMI-1640 medium (PanEco, S330p) supplemented with 2% FBS. After adding 50 μl of the prepared dilutions to the cells, the incubation mixture contained the final concentrations of the test substances and no more than 1% DMSO. The plates were Incubated at 37° C. for 72 h. After incubation, 15 μl of Alamar Blue vital dye (ThermoFisher, # DAL1100) was added to each well. The plates were shaken on an orbital shaker (Biosan, Latvia) and further incubated for 3-5 h in a CO2 incubator (Thermo Forma, USA). Number of living cells was estimated using a plate spectrophotometer Infinite M200Pro, (Tecan, Switzerland) measuring fluorescent signal at the excitation wavelength (λEx) of 540 nm and emission wavelength (λEm) of 590 nm.
# IC50 was calculated using Magellan 7.2 software (Tecan, Switzerland) approximating experimental points by four-parameter logistic model with the optimization by Levenberg-Marquardt.
# WT EGFR (Wild-Type EGFR) = biological target: T1, WT EGFR (Wild-Type EGFR) (Homo sapiens, UniProt P00533); assay: Inhibition of WT EGFR kinase activity (ADP-Glo); format: biochemical
# T1 construct: purchased SignalChem
# In short: (§2)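 Luminescent ADP-Glo readout was used for both wild-type and L858R/T790M EGFR, each run 180 minutes at 37° C. Reactions used a solution of 50 μM ATP with 0.5 mg/mL peptide substrate. Four-parameter logistic curves gave IC50.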
# [3] = test system: A549 (lung adenocarcinoma, WT); assay: Antiproliferative activity on A549 cells (Alamar Blue); format: cell-based; details: Homo sapiens, antiproliferative test
# In short: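 Viability read by Alamar Blue fluorescence (λEx 540, λEm 590 nm) 3-5 h after dye addition, following 72 h compound treatment at 37° C in 2% FBS RPMI-1640, ≤1% DMSO. Seeding 5*10^3 cells/well, 16-18 h attachment. Four-parameter logistic model gave IC50.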
# [4] = test system: H1975 (lung adenocarcinoma, DM, L828R/T790M); assay: Antiproliferative activity on H1975 cells (Alamar Blue); format: cell-based; details: for pIC50: Homo sapiens, NCI-H1975, H1975 cells; for SI IC50(A549)/IC50(DM): selectivity index, A549 vs H1975 cells
# In short: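 IC50 was fitted with a four-parameter logistic model to Alamar Blue fluorescence (540/590 nm), read 3-5 h after dye addition. Before that, compounds acted on attached H1975 cells, 15*10^3 per well in 2% FBS RPMI-1640, for 72 h at 37 °C, DMSO no more than 1%.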
# [5] = biological target: T2, DM EGFR (DoubleMutantEGFR, L828R/T790M) (Homo sapiens, UniProt P00533, L858R/T790M); assay: Inhibition of DM EGFR kinase activity (ADP-Glo); format: biochemical; details: for pIC50: inhibition of kinase activity, EGFR DM (L828R/T790M); for SI, IC50(WT)/IC50(DM): selectivity index, kinase EGFR WT vs EGFR DM
# T2 construct: purchased SignalChem
# In short: as §2
# [6] = Chemical stability in human blood plasma; format: in vitro ADME; details: pooled human blood plasma; 10 μm; 4 hours at 37° C.; substance amount remaining
# In short: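 Percent of parent remaining was derived by comparing HPLC peak areas at time zero and after 4 h at 37 °C. Test compound was at 10 μM in human plasma pooled from ten donors, and proteins were precipitated with acetonitrile before analysis.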
# [7] = Enzyme stability in human liver S9 fractions; format: in vitro ADME; details: 0.5 mg/mL pooled human liver S9 fractions; 10 μM compound; 37° C.; pH 7.4; read-out: Stability in liver S9 fractions, Clint
# Protocol: Determination of enzyme stability.
# Measuring of candidate enzyme stability enabled estimation of the stability of the compounds towards the action of liver enzymes.
# Enzyme degradation rate was measured by incubating the reaction mixture in a dry block thermostat at 37° C., said reaction mixture comprising 0.5 mg/mL of pooled human liver S9 fractions (XenoTech, USA, cat # H0610), 10 μM compound, 2 mM β-nicotinamide adenine dinucleotide (Carbosynth, UK, cat # NN10871) and 4 mM magnesium chloride in 0.1 M sodium-phosphate buffer, pH=7.4. The reaction was quenched with acetonitrile (100 μL of acetonitrile/100 μL of the reaction mixture). After quenching, the samples were centrifuged at 10000 rpm for 10 minutes. Supernatant fluid was tested by chromatographic technique using Agilent1200 (Agilent, USA). We used gradient elution (1 mL/min flow rate). A graph of the logarithm of substance's peak area as a function of time was made. The dependent factor of the line corresponded to the elimination rate constant K based on which the drug's half-life T½ and intrinsic clearance CLint were calculated:
# Based on the data obtained, candidate enzyme stability in human liver S9 fractions was determined (see Table 11).
# [8] = average values obtained in several tests, Table 16, read-out: H1975 (DM) IC50
# [9] = antiproliferative test, Table 15, read-out: IC50 H1975 (DM)
SMILES,"TI, CC50/IC50 (HepG2 cells)",CC50 at 72 h [1],pIC50 [2],pIC50 (WT EGFR (Wild-Type EGFR)),pIC50 [3],"pIC50 [4, 8]","pIC50 [4, 9]",SI IC50(A549)/IC50(DM) [4],pIC50 [5],"SI, IC50(WT)/IC50(DM) [5]","Stability in blood plasma, % [6]",Intrinsic clearance in human liver S9 fractions at 10 µM [7]
C=CC(=O)Nc1cc(Nc2cc(C(=O)c3ccc(N(CC)CC)cc3)ccn2)c(OC)cc1N(C)CCN(C)C,229,7820 nM,7.86,6.84,5.35,7.47,7.47,129,8.26,26.20,,
"C=CC(=O)Nc1cc(Nc2nccc(C(=O)c3ccc(OC4CCCCC4)cc3)n2)c(OC)cc1N(C)CCN(C)C [EGFR_3365_67, N-(5-((4-(4-(cyclohexyloxy)benzoyl)pyrimidin-2-yl)amino)-2-((2-(dimethylamino)ethyl)(methyl)amino)-4-methoxyphenyl)acrylamide]",43,9460 nM,7.58,7.01,5.61,6.66,6.66,11,7.98,9.27,92.8%,18.7 µL/min/mg
"C=CC(=O)Nc1cc(Nc2cc(C(=O)c3ccc(OCC(C)C)cc3)ccn2)c(OC)cc1N(C)CCN(C)C [EGFR_3365_77, N-(2-((2-(dimethylamino)ethyl)(methyl)amino)-5-((4-(4-isobutoxybenzoyl)pyridin-2-yl)amino)-4-methoxyphenyl) acrylamide]",33,8340 nM,7.63,7.30,5.66,6.60,6.60,9,8.30,10.04,,
"C=CC(=O)Nc1cc(Nc2nccc(C(=O)c3ccc(N4CC[C@@H](OC)C4)cc3)n2)c(OC)cc1N(C)CCN(C)C [EGFR_3365_115, (R)-N-(2-((2-(dimethylamino)ethyl)(methyl)amino)-4-methoxy-5-((4-(4-(3-methoxypyrrolidin-1-yl)benzoyl)pyrimidin-2-yl)amino)phenyl)acrylamide]",1154,22000 nM,,6.90,4.89,7.72,7.72,670,8.70,63.44,94.6%,19.8 µL/min/mg
"C=CC(=O)Nc1cc(Nc2nccc(C(=O)c3ccc(N4CCN(C)CC4)cc3OC)n2)c(OC)cc1N(C)CCN(C)C [EGFR_3365_120, N-(2-((2-(dimethylamino)ethyl)(methyl)amino)-4-methoxy-5-((4-(2-methoxy-4-(4-methylpiperazin-1-yl)benzoyl)pyrimidin-2-yl)amino)phenyl)acrylamide]",6514,29300 nM,8.28,7.51,4.79,8.35,8.35,3644,8.63,13.01,100.0%,3.8 µL/min/mg
"C=CC(=O)Nc1cc(Nc2nccc(C(=O)c3ccc(N4CCC(N(C)C)CC4)cc3)n2)c(OC)cc1N(C)CCN(C)C [EGFR_3365_121a, N-(2-((2-(dimethylamino)ethyl)(methyl)amino)-5-((4-(4-(4-(dimethylamino)piperidin-1-yl)benzoyl)pyrimidin-2-yl)amino)-4-methoxyphenyl) acrylamide]",4649,11800 nM,7.87,7.53,5.49,8.59,8.59,1284,9.02,30.92,99.0%,2.1 µL/min/mg
"C=CC(=O)Nc1cc(Nc2nccc(C(=O)c3ccc(N4CCCC4)cc3OC)n2)c(OC)cc1N(C)CCN(C)C [EGFR_3365_123, N-(2-((2-(dimethylamino)ethyl)(methyl)amino)-4-methoxy-5-((4-(2-methoxy-4-(pyrrolidin-1-yl)benzoyl)pyrimidin-2-yl)amino)phenyl)acrylamide]",33959,40000 nM,,7.28,5.14,8.93,8.93,6105,8.58,19.58,87.3%,9.2 µL/min/mg
"C=CC(=O)Nc1cc(Nc2nccc(C(=O)c3c(OC)cc(OC)cc3OC)n2)c(OC)cc1N(C)CCN(C)C [EGFR_3365_124, N-(2-((2-(dimethylamino)ethyl)(methyl)amino)-4-methoxy-5-((4-(2,4,6-trimethoxybenzoyl)pyrimidin-2-yl)amino)phenyl)acrylamide]",>754,> 50000 nM,,7.12,4.70,7.18,7.18,298,8.45,21.41,90.7%,22.2 µL/min/mg
